Measurements from patent US7943382B2, “Method for inspecting fat-soluble vitamin and/or fat-soluble food factor by saliva analysis” (Mitsubishi Chemical Medience Corporation, priority 2004, dated 2011).

How the values were obtained:
[1] = Correlation between the blood level and the content in saliva (CoQ10 ingestion tests part 1 and 2); format: in vivo, human
Procedure: 11 volunteers were made to ingest orally two tablets (CoQ10 content: 100 mg in two tablets) of Q10AA Multi (trade name, Shiseido Co., Ltd., hereinafter may be referred to “Supplement S”), a commercial CoQ10 supplement, at 7:00 every morning continuously for a week. Meanwhile, the contents of the fat-soluble vitamins and fat-soluble food factors in the Supplement S are 50 mg/tablet as for CoQ10, and 16.4 mg/tablet as for α-tocopherol. Then parotid saliva, directly collected saliva and heparinized plasma were collected from PM 4:00 to 5:00, three times, before and one week after ingestion and two weeks after discontinuation of ingestion. The volunteer had the mouth rinsed with water, and kept quiet on a chair for 5 minutes, while the volunteer accumulated saliva in the oral cavity and discharge to initialize the oral cavity, followed by collecting saliva. Approximately 1 ml of saliva accumulated in the oral cavity was collected as directly collected saliva. In order to collect saliva from the parotid gland, an absorbent cotton of 2 g was put beneath the tongue to prevent contamination with saliva from sublingual gland and submandibular gland, while the Saliva-sampler comprising a cotton saliva absorber and an indicator which informed termination of collection by color change was inserted between the teeth and the cheek near the open of the parotid gland. […]

[2] = Transition of the CoQ10 level in parotid saliva depending on ingestion states of Supplement N; format: in vivo, human
Procedure: For the ingestion test of CoQ10, commercial supplement S containing CoQ10 of 50 mg per one tablet and commercial supplement N containing 30 mg per one tablet were used. 10 volunteers in the group S and 10 volunteers in the group N were made to ingest orally the supplement s and the supplement N respectively. For ingestion of supplement S, each volunteer was made to ingest orally two tablets at 9:00 every morning continuously for a week, and for the next week, made to ingest orally double amount, four tablets at 9:00 every morning continuously, and then stopped from ingestion for two weeks. For ingestion of supplement N, each volunteer was made to ingest orally three tablets at 9:00 every morning continuously for a week, and for the next week, made to ingest orally double amount, six tablets at 9:00 every morning continuously, and then stopped from ingestion for two weeks. As specimens in both the groups S and N, parotid saliva and heparinized plasma were collected from PM 4:00 to 5:00, total four times, that is, before and one week after ingestion, at double dose ingestion, and two weeks after discontinuation of ingestion. The volunteer had the mouth rinsed with water prior to collection, kept quiet on a chair for 5 minutes, while the volunteer accumulated saliva in the oral cavity and discharged to initialize the oral cavity, followed by collecting parotid saliva. For collection of parotid saliva, the Saliva-sampler is inserted between the teeth and the cheek near the open of the parotid gland, the volunteer sat quiet on a chair, during which saliva was collected, while the volunteer swallowed saliva, which was secreted from the sublingual gland and the submandibular gland and accumulated in the mandible, to prevent contamination with the saliva from the sublingual gland and the submandibular gland. For analysis of CoQ10 in saliva collected from the parotid gland, the Saliva-sampler with absorbed saliva was transferred to the peculiar tube holding 1 ml of 50% ethanol, to which […] of ethanol was added to have a final concentration of […]. […]

COC1=C(OC)C(=O)C(C/C=C(\C)CC/C=C(\C)CC/C=C(\C)CC/C=C(\C)CC/C=C(\C)CC/C=C(\C)CC/C=C(\C)CC/C=C(\C)CC/C=C(\C)CCC=C(C)C)=C(C)C1=O [CoQ10, Ubidecarenone]
correlation between concentrations in parotid saliva and plasma ([1]; 112 specimens of examples 2 and 3, FIG. 5): good correlation | correlation between levels in directly collected saliva and plasma ([1]; FIG. 6): weak but recognizable correlation | transition of the CoQ10 level in parotid saliva ([2]; 3 tablets/day one week, 6 tablets/day next week, then two weeks discontinuation, other 7 volunteers, FIG. 7): increased by ingestion of the supplement with CoQ10, furthermore increased by more ingestion, and decreased after discontinuation of ingestion | transition of the CoQ10 level in parotid saliva ([2]; volunteer N9, ingestion approximately three hours after breakfast): small increase | transition of the CoQ10 level in parotid saliva ([2]; volunteers N1 and N5 (no or often lacking breakfast), increased amount of the supplement): hardly increased
